Converted amounts (≈) assume the structure as drawn.
system: Mycobacterium tuberculosis; test: Antimycobacterial activity against quinolone-resistant multidrug-resistant Mycobacterium tuberculosis after 21 days by agar dilution method; type: functional; conditions: 504 h

SMILES	MIC [µg/mL]	MIC50 [µg/mL]	MIC90 [µg/mL]
COc1c(N2CC3(CC3)[C@](C)(N)C2)c(F)cc2c(=O)c(C(=O)O)cn([C@@H]3C[C@@H]3F)c12	0.125 (≈ 0.298 µM)	0.125 (≈ 0.298 µM)	0.5 (≈ 1.19 µM)
COc1c(N2CCNC(C)C2)c(F)cc2c(=O)c(C(=O)O)cn(C3CC3)c12 (stereo unspecified) [GATIFLOXACIN]		1 (≈ 2.66 µM)	2 (≈ 5.33 µM)
C[C@H]1COc2c(N3CCN(C)CC3)c(F)cc3c(=O)c(C(=O)O)cn1c23.C[C@H]1COc2c(N3CCN(C)CC3)c(F)cc3c(=O)c(C(=O)O)cn1c23.O [LEVOFLOXACIN]		8	16
COc1c(N2C[C@@H]3CCCN[C@@H]3C2)c(F)cc2c(=O)c(C(=O)O)cn(C3CC3)c12 [MOXIFLOXACIN]		2 (≈ 4.98 µM)	4 (≈ 9.96 µM)
CO[C@H]1/C=C/O[C@@]2(C)Oc3c(C)c(O)c4c(O)c(c(/C=N/N5CCN(C)CC5)c(O)c4c3C2=O)NC(=O)/C(C)=C\C=C\[C@H](C)[C@H](O)[C@@H](C)[C@@H](O)[C@@H](C)[C@H](OC(C)=O)[C@@H]1C [RIFAMPIN]		128 (≈ 156 µM)	> 128
